Measured values reported in US20090246265A1, “ABUSE DETERRENT TRANSDERMAL FORMULATIONS OF OPIATE AGONISTS AND AGONIST-ANTAGONISTS” (AllTranz Inc., priority 2008, published 2009).
Entries after “also recorded” stand apart in the source; their conditions may differ. Counter-ions that a name gives are not always drawn.

Columns and labels:
[1] = Solubility in the pressure sensitive adhesive matrix; assay type: physicochemical; conditions: Durotak Elite 87-900A PSA
Description: Thus, the suspension was mixed and poured to 20 mil thickness.
Thus, the suspension and 3 solutions of NTX prodrugs were mixed and poured to 20 mil thickness.
Three patch formulations for testing were prepared. The patch formulations included naltrexone-HCl, naltrexone-HCl coated with cellulose acetate phthalate and an isobutyryl ester prodrug of naltrexone. The naltrexone-HCl and cellulose acetate phthalate complex was prepared using the methods described in Example 2. The patch formulations also included buprenorphine in a concentration of 2% w/w or 20 mg of buprenorphine per […] of pressure sensitive adhesive. […] The PSA admixture was poured onto Scotch PAK 1022 Release Liner 3.0 mil 3M™, spread to an even 20 mil thickness with an 8 path wet film applicator by Gardco®. The matrices were allowed to dry at 40° C. and finally the Cotran 9715 Film 3M™ as a backing membrane was applied.

[2] = In vitro diffusion (permeation and accumulation) studies through human skin, PermeGear flow through diffusion apparatus
[3] = Release of buprenorphine and naltrexone from patch placed in methanol or ethanol; assay type: physicochemical; conditions: patch with 2% buprenorphine
Source text: Methanol and ethanol are two media that could potentially be used to dissolve a patch for the purpose of extracting the opiate in the patch by a potential abuse. Thus, an antagonist complex such as NTX-CAP should release in a rapid manner in order to be able to block the opiates effect if injected or ingested. FIG. 6 is a representative profile of the release characteristics of naltrexone coated with cellulose acetate phthalate in methanol and ethanol.
This ratio corresponds to the amount of naltrexone necessary to cause a narcotic blockade at the opiate receptors.

[4] = Example 7, NTX-CAP and buprenorphine base bi-layer patch
[5] = Example 7, NTX•HCl and buprenorphine base bi-layer patch
[6] = Example 7, NTX•HCl and buprenorphine base bi-layer patch, 24 h
[7] = Example 7, NTX•HCl and buprenorphine base bi-layer patch, after 24 h
[8] = Example 8, NTX-CAP and buprenorphine base bi-layer patch
[9] = Example 8, NTX•HCl and buprenorphine base bi-layer patch, 24 h
[10] = Example 8, NTX•HCl and buprenorphine base bi-layer patch, after 24 h
[11] = Example 8, NTX•HCl and buprenorphine bi-layer patch, n=1

CO[C@@]12CC[C@@]3(C[C@@H]1[C@](C)(O)C(C)(C)C)[C@H]1Cc4ccc(O)c5c4[C@@]3(CCN1CC1CC1)[C@H]2O5 [BUP from bi-layer, buprenorphine]
solubility in pressure sensitive adhesive (matrix) [1]: freely soluble | Flux [2, 4]: 0.39 ± 0.05 nmol/cm^2/h | Lag time [2, 4]: 10.6 ± 0.28 h | Cumulative ([2]; Example 7, NTX-CAP and buprenorphine base bi-layer patch, 24 h): 9.3 ± 1.2 nmol | Drug in skin ([2]; Example 7, NTX-CAP and buprenorphine base bi-layer patch, after 24 h): 0.43 ± 0.01 µmol/g | Flux [2, 5]: 0.23 ± 0.06 nmol/cm^2/h | Lag time [2, 5]: 10.0 ± 2.6 h | buprenorphine flux, times higher than naltrexone [2, 5]: 11.2 times | Cumulative [2, 6]: 5.5 ± 0.7 nmol | Drug in skin [2, 7]: 0.35 ± 0.01 µmol/g | Cumulative [2, 8]: 24.6 ± 10.8 nmol | Drug in skin [2, 8]: 0.50 ± 0.04 µmol/g | Flux [2, 8]: 1.05 ± 0.65 nmol/cm^2/h | Lag time [2, 8]: 8.2 ± 0.6 h | total permeation [2, 8]: 11.65 µg | Cumulative [2, 9]: 18.5 nmol | Drug in skin [2, 10]: 0.37 µmol/g | Flux [2, 11]: 0.6 NA* nmol/cm^2/h | Lag time [2, 11]: 9.5 h

O=C1CC[C@@]2(O)[C@H]3Cc4ccc(O)c5c4[C@@]2(CCN3CC2CC2)[C@H]1O5 [NTX•HCl, naltrexone hydrochloride]
solubility in pressure sensitive adhesive (matrix) ([1]; hydrochloride): Neither NTX.HCl nor CAP-NTX were soluble; also recorded: not soluble | solubility in pressure sensitive adhesive (matrix) ([1]; listed as naltrexone-HCl, hydrochloride): suspensions | Release ratio of BUP:NTX ([3]; ethanol, 0 min): 9.9 | Release ratio of BUP:NTX ([3]; ethanol, 10 min): 7.2 | Release ratio of BUP:NTX ([3]; ethanol, 30 min): 4.6 | Release ratio of BUP:NTX ([3]; ethanol, 60 min): 4.1 | Release ratio of BUP:NTX ([3]; methanol, 0 min): 7.8 | Release ratio of BUP:NTX ([3]; methanol, 10 min): 6.5 | Release ratio of BUP:NTX ([3]; methanol, 30 min): 6.5 | Release ratio of BUP:NTX ([3]; methanol, 60 min): 6.1 | Flux [2, 5]: 0.02 ± 0.03 nmol/cm^2/h | Lag time [2, 5]: 14.6 NA* h | Cumulative ([2]; Example 7, NTX•HCl and buprenorphine base bi-layer patch, 24 h, listed as NTX•HCl from bi-layer, hydrochloride): 0.3 ± 0.5 nmol | Drug in skin [2, 7]: 0.29 ± 0.03 µmol/g | Cumulative ([2]; Example 8, NTX•HCl and buprenorphine base bi-layer patch, 24 h, listed as NTX•HCl from bi-layer, hydrochloride): 2.3 nmol | Drug in skin [2, 10]: 0.30 µmol/g | Flux [2, 11]: 0.0 NA* nmol/cm^2/h

O=C1CC[C@@]2(O)[C@H]3Cc4ccc(O)c5c4[C@@]2(CCN3CC2CC2)[C@H]1O5 [naltrexone]
solubility in pressure sensitive adhesive (matrix) [1]: not soluble | Cumulative ([2]; Example 6, bi-layer patch with NTX only, 24 hours): 7.3 nmol | Cumulative [2, 6]: 0.3 nmol | Cumulative [2, 9]: 2.3 nmol
